The values that follow come from paper PMC5508548 (Bioorganic & medicinal chemistry letters, 2017).

One series can be described thus: In vitro clearance, rat. It counts as in vitro ADME. The settings on record: for CLHEP, rat: in vitro predicted, well-stirred equation without fuplasma/fumic terms; for CLHEP, rat / CLint scaled: rat; for CLint scaled: liver microsomes.
The nature of series [1]: In vitro clearance, human. It counts as in vitro ADME. The settings on record: for CLHEP, human: in vitro predicted; for CLint scaled: liver microsomes.
Series [2] is described as follows: IV pharmacokinetics in SD rat. It counts as in vivo. The note with it: Sprague-Dawley, plasma.
Another series deals with CYP450s (panel). As to the kind of experiment: CYP450 inhibition profile. It counts as in vitro ADME.
A further series deals with cyno M4 (Macaca fascicularis, UniProt G7PQB4). As to the kind of experiment: ACh CRC fold-shift Ca2+ mobilization and ACh competition binding. It counts as cell-based, cynomolgus monkey. The note with it: operational model cooperativity; n=3–4. Background: Calcium flux is commonly read through the fluorescence of an indicator in the cells.
The subject of the next series is rat M1-3,5. As to the kind of experiment: Muscarinic subtype selectivity, rat M1-3,5. It counts as cell-based. The note with it: read-out: EC50 at rat M1-3,5.
In the next series the test system is human M1-3,5. As to the kind of experiment: Muscarinic subtype selectivity, human M1-3,5. It counts as cell-based. The settings on record: read-out: EC50 at human M1-3,5.
The test system of a further series is dog M2. As to the kind of experiment: Muscarinic subtype selectivity, dog M2. The settings on record: data not shown. It counts as cell-based.
For a further series, the system named is cyno M2. As to the kind of experiment: Muscarinic subtype selectivity, cyno M2. It counts as cell-based, cynomolgus monkey. The settings on record: data not shown.
The subject of the next series is GABAA receptor. As to the kind of experiment: GABAA functional assay. It counts as biochemical. The note with it: at 10 μM.
A further series concerns TA98 and TA100 strains. As to the kind of experiment: Mini-Ames assay. The settings on record: TA98 and TA100 strains ± S9.
The next series relates to CYP 1A2/2B6/3A4. As to the kind of experiment: CYP induction in cryopreserved human hepatocytes. It counts as in vitro ADME. The settings on record: 48 hr incubation, enzyme activity readout.
Another series relates to CYP1A2, CYP2B6, CYP3A4. As to the kind of experiment: CYP induction in cryopreserved human hepatocytes. It counts as in vitro ADME. The settings on record: human.
Series [3] can be described thus: Oral pharmacokinetics in rat. It counts as in vivo.
Series [4] is described as follows: IV and PO pharmacokinetics in dog. It counts as in vivo.
Series [5] in a line: IV and PO pharmacokinetics in cynomolgus monkey. It counts as in vivo.
Series [6] can be described thus: In vitro metabolite identification in cryopreserved hepatocytes. It counts as in vitro ADME, rat, dog, cynomolgus monkey, human.
Another series concerns CYP450. As to the kind of experiment: Human CYP450 phenotyping. It counts as in vitro ADME.
The nature of series [7]: Reactive metabolism/bioactivation. It counts as in vitro ADME. The note with it: human hepatic microsomes.
Series [8] relates to L-DOPA-induced dyskinesia. The note with it: NHPs, 10 mg/kg IV; cited from earlier work.
In series [9] the test system is L-DOPA-induced dyskinesia. The settings on record: PD-LID mice and NHPs; cited from earlier work.

pEC50, pIC50: −log10 of the molar value.

A word on the CLint scaled: it is the capacity of the preparation to metabolise the compound, expressed as a volume cleared per time. Usually pIC50 stands for the negative decadic logarithm of the IC50, by convention in mol/L. The term pEC50 denotes the EC50 on a negative log10 scale, so that one unit is a factor of ten. As usually defined, the EC50 is the midpoint of the concentration-response curve.

For the compound `Cc1nnc2sc(C(=O)NCc3ccc(-c4ccnc(F)c4)cc3)c(N)c2c1C` [8k], in the series “In vitro clearance, rat”, the “CLHEP, rat” value was 31.5 mL/min/kg and the CLint scaled was found to be 57.1 mL/min/kg. For the same compound, in series [1], the “CLHEP, human” value is 17.8 mL/min/kg and the intrinsic metabolic clearance (CLint scaled) worked out at 19.6 mL/min/kg. In [2], this compound returned a clearance of 3.6 mL/min/kg.

`Cc1nnc2sc(C(=O)NCc3ccc(-c4ccncc4)cc3)c(N)c2c1C` [8f]: in “In vitro clearance, rat”, the “CLHEP, rat” value is on record as 59.9 mL/min/kg and the CLint scaled amounted to 415 mL/min/kg. In addition, in series [1], the “CLHEP, human” value is listed as 15.2 mL/min/kg and the CLint scaled was determined as 20.1 mL/min/kg. In the series with CYP450s (panel), this compound showed a negative-log IC50 (pIC50) above 5.00. In series [2], this compound gave a clearance of 9 mL/min/kg.

Turning to `Cc1nnc2sc(C(=O)NCc3ccc(-c4ccc(F)nc4)cc3)c(N)c2c1C` [8m], in “In vitro clearance, rat”, the “CLHEP, rat” value is listed as 37.7 mL/min/kg and the intrinsic metabolic clearance (CLint scaled) is 81.6 mL/min/kg. In [1], the “CLHEP, human” value was 17.1 mL/min/kg and the CLint scaled worked out at 20.2 mL/min/kg. This compound came in with a clearance in series [2] of 1.7 mL/min/kg.

With `Cc1nnc2sc(C(=O)NCc3ccc(-c4cccnc4F)cc3)c(N)c2c1C` [8p, 5-amino-N-(4-(2-fluoropyridine-3-yl)benzyl)-3,4-dimethylthieno[2,3-c] pyridazine-6-carboxamide], the “α at cyno M4” value on cyno M4 worked out at 28.2. Besides, the “β at cyno M4” value on cyno M4 stood at 2.5. Also, the pEC50 with rat M1-3,5 and in the series on human M1-3,5 was below 4.52 in each case. Moreover, in the series on dog M2, the “activity at dog M2” value is “inactive”. Besides, the “activity at cyno M2” value in the series with cyno M2 was “inactive”. The “GABAA functional assay activity” value in the series with GABAA receptor is “no activity”. Also, the mini-Ames mutagenicity entry with TA98 and TA100 strains is given as “negative”. Further, the “CYP 1A2/2B6/3A4 induction Emaxs” value in the series on CYP 1A2/2B6/3A4 is reported as below 2. The compound also returned an EC50 at 48 h with CYP1A2, CYP2B6, CYP3A4 above 50 µM. In addition, the “CLHEP, rat” value in the series “In vitro clearance, rat” was 46.0 mL/min/kg. Moreover, in the series “In vitro clearance, rat” (inclusion of binding terms in the well-stirred model), the “predicted rat CLhep, revised prediction method” value was 0.49 mL/min/kg. In addition, the CLint scaled in “In vitro clearance, rat” is 134 mL/min/kg; in series [1], 19.2 mL/min/kg. Moreover, in [1], the “CLHEP, human” value is given as 14.8 mL/min/kg. The compound also gave a pIC50 in the series on CYP450s (panel) of at most 4.96. Further, the clearance in series [2] amounted to 1.6 mL/min/kg; in series [4] (plasma, iv) it was 5.5 mL/min/kg; in series [5] (plasma, iv) it was 9.3 mL/min/kg. Also, the oral bioavailability came out at 61 % F in [3] (10 mg/kg solution dose), 54 %F in series [3] (HCl salt of 8p dosed as a suspension), 47 %F in [4] (3 mg/kg suspension dose of the HCl salt) and 4.7 %F in series [5] (10 mg/kg solution dose of HCl salt). Moreover, the human unique metabolites result in series [6] (cryopreserved hepatocytes, multiple species) is “no evidence for human unique metabolites”. The “turnover in cryopreserved hepatocytes” value in series [6] (rat, dog, cynomolgus monkey, human hepatocytes) was “low turnover”. The “CYPs contributing to metabolism” value in the series on CYP450 was 3A4 (predominant), 2D6, 2C19, 2C9 and 1A2. For the same compound, the GSH conjugates result in [7] is listed as “no significant levels of GSH conjugates”. Besides, the “dyskinesia scores and involuntary movements” value in series [8] was “significantly reduces dyskinesia scores and involuntary movements”. In addition, the “deficits in synaptic plasticity and behavior” value in series [9] is “ameliorates deficits in synaptic plasticity and behavior”.
